Results as given in US10745401B2, “Condensed lactam derivative” (Sumitomo Dainippon Pharma Co., Ltd., priority 2018, dated 2020).
pEC50, pIC50, pKi: −log10 of the molar value.

Assays:
human D2 receptor = human D2 receptor (Homo sapiens (Human), UniProt P14416); test: Test 1: binding activity for human D2 receptor ([3H]Spiperone, CHO cell membrane fraction); details: human D2 receptor, [3H]Spiperone
Summary of the method: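 Compound displacement of [3H]ketanserin at 5-HT2A or [3H]spiperone at D2 was measured in CHO membrane fractions after 60 min at room temperature, with filtration and scintillation counting. IC50 was converted to Ki by Cheng–Prusoff using ligand concentration and Kd from saturation binding.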

human 5-HT1A receptor [1] = biological target: T1, human 5-HT1A receptor (Homo sapiens (Human), UniProt P08908); test: Test 2: agonist activity for human 5-HT1A receptor ([35S]GTPγS binding); assay type: biochemical; details: for pEC50: [35S]GTPγS binding, concentration at which half the activity of Emax was obtained; for Emax at 10 µM: agonist activity in the presence of 10 μM of compound, relative to 100 μmol/L 5-HT
Summary of the method: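 [35S]GTPγS binding read-out: after 60 min at room temperature with test compound in GDP buffer, human 5-HT1A receptor CHO membranes were vacuum-filtered and retained radioactivity scintillation-counted. Agonist activity calculated by formula.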

hERG channel [2] = biological target: T2, hERG channel (Homo sapiens (Human), UniProt Q12809); test: Test 6-2: inhibitory activity for hERG channel (auto patch clamp, Qube); assay type: cell-based; details: Test 6-2, hERG-CHO cells, whole cell patch clamp; read-out: hERG inhibition IC50
Method: Extracellular fluid: 2 mmol/L CaCl2, 1 mmol/L MgCl2, 10 mmol/L HEPES, 4 mmol/L KCl, 145 mmol/L NaCl, 10 mmol/L Glucose
(Measurement of Current Value and Data Analysis)
The cell suspension, the extracellular fluid, the intracellular fluid, and the measurement plate were set in the auto patch clamp system, and hERG current was measured by whole cell patch clamp method. […] Each pulse interval was 15 seconds. […] The test was carried out by applying incrementally 4 concentrations of each test compound, and the average of the maximum peak tail currents which were obtained from the last 3 stimulations in each concentration was determined as the evaluated data. Based on the current inhibition rate for a pre-applied current at each concentration of each test compound, IC50 value was calculated by Hill equation with the software.

[3] = Test 4: metabolic stability test in human hepatic microsome; assay type: in vitro ADME; details: 0.1 mg/mL microsome, 0.1 μmol/L compound, 37° C., 30 minutes
Summary of the method: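 LC-MS quantified remaining parent after 30 min, 37° C, in pH 7.4 25 mmol/L phosphate containing 0.1 mg/mL human hepatic microsomes, 3.2 mmol/L NADPH and 0.1 μmol/L test compound. Value given as −LN(residual ratio)/30/0.1, mL/min/mg protein.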

human 5-HT1A receptor [4] = biological target: T1, human 5-HT1A receptor; test: Test 1: binding activity for human 5-HT1A receptor ([3H]8-OH-DPAT, CHO cell membrane fraction)
Summary of the method: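 Membranes incubated with [3H]8-OH-DPAT and compound for 60 min at room temperature, then filtered on polyethylenimine-coated glass-fibre plates and counted by liquid scintillation. IC50 from Hill analysis; Ki = IC50/(1+S/Kd), Kd from saturation binding on the same membranes.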

hERG channel [5] = biological target: T2, hERG channel; test: Test 6-1: inhibitory activity for hERG channel (auto patch clamp, Qpatch); assay type: cell-based; details: whole cell auto patch clamp, hERG-CHO cells; read-out: hERG inhibition IC50
Summary of the method: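 Whole-cell patch clamp on an automated system using CHO cells stably expressing human hERG (IKr); 15 s pulse interval. Four increasing compound concentrations applied cumulatively; mean peak tail current from last 3 stimulations per concentration used. IC50 from inhibition versus pre-compound current, fitted by Hill equation.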

[6] = Test 10: intracerebral transferability of rats (Kp,uu,brain); assay type: in vivo, rat; details: unbound drug concentration ratio brain/plasma
Method: Test 10: Evaluation of Intracerebral Transferability (Test for Intracerebral Transferability of Rats)
In this test, intracerebral transferability of the present compounds was evaluated by the following method. The present compounds were subcutaneously administered as a solution in saline, or orally administered as a suspension in methyl cellulose to 7-week-old SD or WKY rats. Plasma and brain were collected on 0.5 hours, 1 hour, or 2 hours after the administration to measure the drug concentrations in plasma and brain by LC-MS.
Binding rates of the present compound to plasma and brain protein were measured by equilibrium dialysis method.
Kp,uu,brain (unbound drug concentration ratio between brain/plasma) can be calculated by applying the compound concentrations in plasma and brain and the binding rates to plasma and brain protein obtained from the above test into the following formula. Kp,uu,brain=(Compound concentration in brain×(100−Binding rate to brain protein (%))/100)/(Compound concentration in plasma×(100−Binding rate to plasma protein (%))/100)

T2 sequence (Q12809 whole entry): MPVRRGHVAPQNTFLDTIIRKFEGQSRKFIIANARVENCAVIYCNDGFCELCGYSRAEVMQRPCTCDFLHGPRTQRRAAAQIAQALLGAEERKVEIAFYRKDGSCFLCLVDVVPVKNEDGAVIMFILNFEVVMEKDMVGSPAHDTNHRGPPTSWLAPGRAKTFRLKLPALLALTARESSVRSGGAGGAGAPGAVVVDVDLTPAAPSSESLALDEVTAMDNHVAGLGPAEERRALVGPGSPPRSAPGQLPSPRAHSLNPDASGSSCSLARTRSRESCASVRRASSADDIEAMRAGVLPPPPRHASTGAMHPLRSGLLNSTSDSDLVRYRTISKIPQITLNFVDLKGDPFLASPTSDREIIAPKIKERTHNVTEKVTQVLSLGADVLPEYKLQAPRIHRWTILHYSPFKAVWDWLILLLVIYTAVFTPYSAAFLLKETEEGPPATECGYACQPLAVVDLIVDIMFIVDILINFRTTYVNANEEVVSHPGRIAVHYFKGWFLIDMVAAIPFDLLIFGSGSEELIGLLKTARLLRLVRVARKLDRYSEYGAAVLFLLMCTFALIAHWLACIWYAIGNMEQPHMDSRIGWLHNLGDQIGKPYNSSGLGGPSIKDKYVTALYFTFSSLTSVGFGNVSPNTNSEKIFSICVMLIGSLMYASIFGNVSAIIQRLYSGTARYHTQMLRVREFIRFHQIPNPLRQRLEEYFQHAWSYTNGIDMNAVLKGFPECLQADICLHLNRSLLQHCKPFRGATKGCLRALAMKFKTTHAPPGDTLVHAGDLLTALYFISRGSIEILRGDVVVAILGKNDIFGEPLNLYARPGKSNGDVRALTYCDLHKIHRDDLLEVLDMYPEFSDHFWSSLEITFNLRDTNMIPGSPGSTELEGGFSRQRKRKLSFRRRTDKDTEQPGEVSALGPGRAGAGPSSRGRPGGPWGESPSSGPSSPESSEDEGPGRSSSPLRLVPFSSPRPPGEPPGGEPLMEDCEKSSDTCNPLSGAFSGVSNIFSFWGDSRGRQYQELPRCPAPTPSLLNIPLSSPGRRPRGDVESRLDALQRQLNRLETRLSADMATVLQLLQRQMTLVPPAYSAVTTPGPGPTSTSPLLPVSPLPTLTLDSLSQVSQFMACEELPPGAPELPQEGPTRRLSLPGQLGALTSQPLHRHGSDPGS
T1 sequence (P08908 whole entry): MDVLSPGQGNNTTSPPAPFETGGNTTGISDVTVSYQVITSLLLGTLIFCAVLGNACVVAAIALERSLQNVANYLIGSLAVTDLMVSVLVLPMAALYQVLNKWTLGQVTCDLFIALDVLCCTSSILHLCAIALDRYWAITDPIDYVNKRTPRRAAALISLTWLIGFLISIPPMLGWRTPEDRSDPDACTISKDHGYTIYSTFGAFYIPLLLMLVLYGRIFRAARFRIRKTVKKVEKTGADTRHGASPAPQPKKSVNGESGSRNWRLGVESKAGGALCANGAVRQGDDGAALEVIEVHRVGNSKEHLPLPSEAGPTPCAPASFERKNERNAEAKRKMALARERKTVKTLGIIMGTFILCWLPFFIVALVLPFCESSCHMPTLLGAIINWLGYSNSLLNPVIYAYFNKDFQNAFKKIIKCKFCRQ
Chain of human D2 receptor (P14416 whole entry): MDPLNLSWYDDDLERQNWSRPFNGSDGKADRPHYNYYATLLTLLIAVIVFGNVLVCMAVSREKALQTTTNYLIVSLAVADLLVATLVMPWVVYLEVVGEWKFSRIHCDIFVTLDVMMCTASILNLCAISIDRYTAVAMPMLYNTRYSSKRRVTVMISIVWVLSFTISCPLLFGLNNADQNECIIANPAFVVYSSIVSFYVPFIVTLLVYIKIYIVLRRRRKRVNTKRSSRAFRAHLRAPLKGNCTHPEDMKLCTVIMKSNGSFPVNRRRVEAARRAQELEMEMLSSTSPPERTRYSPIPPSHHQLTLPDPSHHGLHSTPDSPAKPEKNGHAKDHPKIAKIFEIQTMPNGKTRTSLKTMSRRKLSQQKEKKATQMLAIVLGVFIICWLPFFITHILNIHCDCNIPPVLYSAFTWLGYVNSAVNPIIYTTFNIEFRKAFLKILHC

pKi (human D2 receptor) | pEC50 (human 5-HT1A receptor [1]) | Emax at 10 µM (human 5-HT1A receptor [1]) [%] | Metabolic stability in human hepatic microsome [3] [mL/min/mg protein] | pKi (human 5-HT1A receptor [4]) | Kp, uu, brain [6] | SMILES | pIC50 (hERG channel [2]) | pIC50 (hERG channel [5])
6.99 | 8.06 | 46 | <0.05 | 9.24 | – | Cc1nn(C)c2c1C(=O)N(CCN1CCC(c3noc4ccccc34)CC1)CCC2 [Example 91] | 5.74 | –
6.13 | 7.12 | 43 | 0.065 | 8.28 | – | Cc1nn(C)c2c1C(=O)N(CCN1CCN(c3noc4ccccc34)CC1)CCC2 [Example 92] | < 5.00 | –
6.89 | 9.74 | 69 | 0.22 | 10.52 | 1.27 | COc1cc2c(cn1)C(=O)N(CCN1CCN(c3nsc4ccccc34)CC1)CC2 [Example 2, 2-{2-[4-(1,2-Benzoisothiazol-3-yl)piperazin-1-yl]ethyl}-6-methoxy-3,4-dihydro-2,7-naphthyridin-1(2H)-one] | – | 5.60
